Test results: ChEMBL document CHEMBL3988442, “University of Dundee, Small-Polar-MMV Screening Library” (2021)

Experiments:
[1] = test system: Plasmodium falciparum; test: Calibr Malaria Delayed Death Assay SOP; assay type: functional, organism-based; settings: for IC50: Plasmodium falciparum
[2] = microbe, parasite or virus in culture; settings: Mycobacterium tuberculosis, 96 h, read-out: pIC50 (converted)
[3] = microbe, parasite or virus in culture; settings: Mycobacterium tuberculosis, 72 h, read-out: pIC50 (converted)

Compound	pIC50 [1]	IC50 [1]	IC50 [2]	IC50 [3]
COc1cc(CNCC(O)c2ccc(F)c(F)c2)cc2c1OCO2 (stereo unspecified)	6.45	0.46 µM		
CC[C@H]1CN2CC[C@H]1C[C@@H]2CNCc1ccc(OC(F)(F)F)cc1	6.073	0.806 µM	19.8 µM	31.9 µM
CC[C@H]1CN2CC[C@H]1C[C@@H]2CNC(=O)Nc1cc(OC)cc(OC)c1	6.272	0.762 µM	> 50.1 µM	> 50.1 µM
c1cncc(-c2ccc3c(c2)CCC32CCNCC2)c1	5.939	1.28 µM	40.9 µM	46.2 µM
Oc1ccc(Cl)cc1CNCc1cccc(C(F)(F)F)c1	6.177	0.653 µM	29.1 µM	43.2 µM
CCOc1ccc(CN2CCCC(c3cc4ncccc4[nH]3)C2)cc1 (stereo unspecified)	6.15	0.842 µM	24.8 µM	33.6 µM
Cc1cc(Cc2cccc(C(F)(F)F)c2)cc(C2CCCNC2)n1 (stereo unspecified)	6.047	1.12 µM	37.9 µM	25.3 µM
O=C(CCN1CCCC1c1cccc2c1OCCO2)N1CCCCC1 (stereo unspecified)	5.987	0.845 µM	> 50.1 µM	25.2 µM
Cc1cnn(CCCNCc2csc(COc3ccccc3)n2)c1	6.021	0.828 µM	11.4 µM	27.8 µM
CS(=O)(=O)CCCNC1(c2cccc(Cl)c2)CCCC1	6.268	0.87 µM	> 50.1 µM	> 50.1 µM
OC1(CN2CCC(Oc3cccc(C(F)(F)F)c3)CC2)CCNC1 (stereo unspecified)	6.152	0.69 µM		> 50.1 µM
COc1ccccc1CCN1CCCC(CN(C)Cc2ccc(C)o2)C1 (stereo unspecified)	5.915	1.03 µM		
CC(C)(C)CNCC1(O)CCCN(Cc2ccccc2F)C1=O (stereo unspecified)	6.115	0.77 µM		
COc1ccnc(CN2CCCC(CCc3ccccc3)C2)c1OC (stereo unspecified)	5.985	1.03 µM		
Fc1ccccc1C1(CNC2CCOC3(CCOCC3)C2)CCCC1 (stereo unspecified)	6.12	0.796 µM		
NC1CCCCN(Cc2ccccc2CS(=O)(=O)c2ccccc2)C1 (stereo unspecified)	6.25	0.568 µM		
Cc1ccc(OC2(C(=O)N(C)Cc3ccoc3)CCNCC2)cc1	6.094	0.701 µM		
Cn1cc(CN2CCCC(CCc3ccc(F)cc3F)C2)cn1 (stereo unspecified)	5.983	0.992 µM		
Cc1ccccc1CN(CCN(C)C)Cc1ccc(S(C)(=O)=O)cc1	5.997	0.89 µM		
Cc1nccn1CCCN1CCCC(c2ccccc2)C1 (stereo unspecified)	6.639	0.234 µM		
OCc1csc(N2CCCC(COc3cccc(F)c3)C2)n1 (stereo unspecified)	6.326	0.363 µM		

Compound	pIC50 [1]	IC50 [1]	IC50 [2]	IC50 [3]
CN(CCCO)Cc1cc(Cl)ccc1OCC(O)CN1CCCCCC1 (stereo unspecified)	6.2	0.738 µM		
CN1CCN(Cc2ccccc2Oc2nccc3occc23)CC1	6.2	0.593 µM		
COc1cccc(OC)c1CN1CC(=O)N(c2ccc(C)cc2)CC1C (stereo unspecified)	5.987	0.877 µM		
COCCn1ccnc1CN(Cc1ccccn1)Cc1sccc1C	6.065	0.65 µM		
Cc1ccc(C2(CN(C)Cc3sccc3C)CCNCC2)nc1	6.117	0.515 µM		
c1ccn2c(C3CCCN(c4ncnc5c4CCNC5)C3)nnc2c1 (stereo unspecified)	6.629	0.213 µM		
CCOc1cccc(CN2CCCC(Nc3ccc(F)cc3)C2)c1O (stereo unspecified)	6.217	0.577 µM	46.1 µM	
CN(CCO)C[C@@H]1CN(Cc2ccccc2-c2ccccc2)C[C@@H]1CO	6.276	0.611 µM		
Cc1ccc(C)c(OCCNC(=O)[C@@H]2CCCCN2)c1	6.461	0.362 µM		
CN(C)c1nc2c(c(NCc3cc(O)ncn3)n1)CCCC2	6.202	0.643 µM		
CCC[C@H]1CN(c2nc(CO)cs2)C[C@@H]1NC(=O)C1(COC)CC1	5.825	1.6 µM		
Cc1cc(S(=O)(=O)NCC2CNCCOC2)c(C)cc1Cl (stereo unspecified)	5.962	0.99 µM		
Cc1cc(F)ccc1N1CCC(N2C[C@@H](CN(C)C)[C@@H](CO)C2)CC1	6.511	0.314 µM		
Cc1oc(-c2cc(F)cc(F)c2)nc1CN1C[C@@H](C)NC[C@@H]1C	5.947	0.719 µM		
CCc1ccc(C2c3nc[nH]c3CCN2Cc2nccn2CC)nc1 (stereo unspecified)	6.077	0.819 µM		
Nc1nc2c(c(N3CCCC(c4nnc5ccccn45)C3)n1)CCNC2 (stereo unspecified)	6.831	0.144 µM		
CC(C)(C)n1cc(C2=CCN(CCc3ccccn3)CC2)cn1	6.143	1.03 µM		
CNc1nc(C)cc(NC2CCCN(C3Cc4ccccc4C3)C2)n1 (stereo unspecified)	6.114	0.968 µM		
Cc1ccccc1N1CCCN(CC2(O)CCCNC2)CC1 (stereo unspecified)	6.443	0.314 µM		
CN(Cc1ncc[nH]1)c1nc(-c2ccccn2)nc2c1CCNCC2	6.511	0.292 µM		
CN1CCC(C2CCN(Cc3cccc(-n4cccn4)c3)CC2)C1 (stereo unspecified)	6.139	0.656 µM		

Compound	pIC50 [1]	IC50 [1]	IC50 [2]	IC50 [3]
Clc1cccc2c3c([nH]c12)CCN(Cc1cc2n(n1)CCCNC2)C3	6.194	0.965 µM		
Cc1cccnc1CC(C)NC1Cc2ccccc2C1 (stereo unspecified)	5.954	1.29 µM		
Cc1cc(CN(C)c2nc(-c3ccccn3)nc3c2CCNCC3)n[nH]1	5.981	1.08 µM		
Cc1cc2c(cc1CN1CCCCC1CCn1ccnc1C)OCO2 (stereo unspecified)	6.025	1.02 µM		
O[C@H]1[C@H](n2cc(CN3CCCC3)nn2)c2ccccc2C12CCNCC2	7.12	0.0647 µM		
CO[C@H]1CN(C(C)C)C[C@@H]1NC(=O)c1cc(-c2ccccc2O)n[nH]1	6.125	0.891 µM		
CC(C)n1ccnc1C1CCCN(c2ccnc3ccccc23)C1 (stereo unspecified)	6.118	0.829 µM		
CC(C)N1CCC(NCc2cccnc2N(C)Cc2ccccc2)CC1	6.416	0.447 µM		
COc1cccc(CN2CCCC(Nc3cccc(F)c3)C2)c1O (stereo unspecified)	6.314	0.81 µM		
O=C(c1ccc(F)c(Cl)c1)N1C[C@@H]2CC[C@H](C1)N(Cc1ccccc1)C2	5.941	0.758 µM		
Cc1cc(F)ccc1CN1CCC(O)(CN2CCCCC2)C1 (stereo unspecified)	6.047	1.75 µM		
CCC1CN(C(=O)c2ccc(Cl)cc2O)CCN1C(C)C (stereo unspecified)	5.81	1.13 µM		
CCn1ccnc1CN1CCCC(CO)(Cc2cccc(Cl)c2)C1 (stereo unspecified)	6.076	0.575 µM		
CN1CCCC(c2cccc(Cc3ccccc3Cl)n2)C1 (stereo unspecified)	6.022	1.02 µM		
CCNC(=O)N(C)C1CCN(Cc2ncc(C)c(OC)c2C)CC1	5.844	1.59 µM		
c1ccc(CCCN2CCN(c3ccc4nncn4n3)CC2)cc1	5.983	1.41 µM		
CCN1CCCC(CNC(=O)C2(c3cc(C)cc(C)c3)CCC2)C1 (stereo unspecified)	6.008	1.51 µM		
COc1cc(CNCC(O)c2ccc(F)cc2F)cc2c1OCO2 (stereo unspecified)	6.074	0.972 µM		
O=C(NCCN1CCCC1)C1(c2ccc(Cl)cc2)CCOCC1	6.003	0.714 µM		
O=C(Nc1ccc(OC2CCCC2)cc1)C1CCCN1c1nccs1 (stereo unspecified)	7.074	0.0793 µM		
OCCN1CCC(CNCc2ccccc2OC(F)(F)F)CC1	6.066	0.77 µM		

Compound	pIC50 [1]	IC50 [1]	IC50 [2]	IC50 [3]
CN1CCCC1CNC(=O)CCCOc1cccc(Br)c1 (stereo unspecified)	5.833	1.17 µM		
CCN(CC)C(CNC(=O)c1c(C)noc1C(C)C)c1ccsc1 (stereo unspecified)	6.097	1.36 µM		
Cc1cc(C)n(C2CN(CC(O)c3cc(F)ccc3F)C2)n1 (stereo unspecified)	6.757	0.223 µM		
Cc1cc(C)n(C2CN(CC(O)c3ccc(C(F)(F)F)cc3)C2)n1 (stereo unspecified)	5.98	1.03 µM		
c1cnnc(N2CCCC2CNc2ncnc3sccc23)c1 (stereo unspecified)	5.797	1.26 µM		
COc1cc(C(=O)NCc2ccc3c(c2)CCCN3C)cc(OC)c1Br	6.846	0.251 µM		
CC(O)CN1CCC(CNCc2cccc(C(F)(F)F)c2)CC1 (stereo unspecified)	6.332	0.751 µM		
CC(O)CN1CCC(CNCc2cccc(Cl)c2)CC1 (stereo unspecified)	6.249	0.599 µM		
CN(Cc1ncc(C(C)(C)C)o1)CC1CCCN1c1cccnn1 (stereo unspecified)	5.852	1.62 µM		
COc1c(C)cnc(CN2CCC(N(C)C(C)C(N)=O)CC2)c1C (stereo unspecified)	6.018	0.876 µM		
COc1ccc(NC(=O)c2ccc(-n3ncc(C#N)c3N)cc2)cn1	5.946	1.11 µM		
CCc1ncc2c(n1)CN(CC(=O)Nc1ccc(Cl)cn1)CC2	5.772	1.24 µM		
CC(O)CN1CCC(CNCc2cccc(Br)c2)CC1 (stereo unspecified)	6.286	0.528 µM		
Cl.OC(CNCc1ccccc1C(F)(F)F)c1ccccc1 (stereo unspecified)	6.179	0.709 µM		
COc1cc(CNCC(O)c2cccc(F)c2)cc2c1OCO2.Cl (stereo unspecified)	6.133	0.729 µM		
CC(C)c1nn(C)c(Cl)c1CNCC(O)c1cccc(F)c1.Cl (stereo unspecified)	6.252	0.392 µM		
Cl.Cl.Clc1cccc(C[C@@H]2NCCC[C@@H]2Nc2ccccc2)c1	6.034	0.789 µM	16 µM	12 µM
Cn1ccnc1CN(Cc1ccccn1)Cc1ccccc1Cl.O=C(O)CC(O)(CC(=O)O)C(=O)O	6.114	0.725 µM		45.5 µM
CC1(C)CC(N(Cc2ccccc2)Cc2cccnc2)CC(C)(C)N1.O=C(O)CC(O)(CC(=O)O)C(=O)O	5.927	0.602 µM		
Cc1ccc(CN(Cc2cccnc2)C2CC(C)(C)NC(C)(C)C2)s1.O=C(O)CC(O)(CC(=O)O)C(=O)O	6.05	0.727 µM		
Cc1ccc(CN(Cc2ccccn2)C2CC(C)(C)NC(C)(C)C2)s1.O=C(O)CC(O)(CC(=O)O)C(=O)O	6.418	0.432 µM		
